Like-named read-outs stand apart in the source and are kept apart here.

In assay [1] the target is T1, human N-type Ca channel (Homo sapiens, UniProt Q00975). Description: Calcium influx assay (FDSS), KCl depolarization, Fluo8 dye. Set-up: host or cells: HEK 293. The assay is classed as cell-based. Particulars: HEK 293 cells expressing human N-type Ca channel; 100 mM KCl; read-out: N Type IC50 Data FDSS. The procedure:
All cell culture reagents were procured from HyClone and other reagents were from Fisher. Recombinant HEK 293 cells expressing human N-type Ca channel (Millipore) were maintained in DMEM F12 containing 10% FBS and selection antibiotics at 37 °C in 5% CO2.
Cells were incubated at 30 °C in 5% CO2 overnight. The medium was removed and cells were loaded with Fluo8 dye (AAT Bioquest) at 37 °C and 30 °C, 30 min each in darkness. Cells were washed four times with wash buffer (16 mM Herep pH 7.2, 2 mM CaCl2, 1 mM MgCl2, 5 mM glucose, 140 mM choline chloride and 2 mM KCl) leaving 15 µL buffer after the last wash. Compounds of Formula (I), serially diluted, were added to the cell plate. The plates were incubated in darkness for 15 min. Cells were depolarized with 100 mM KCl and Ca influx was measured.

For assay [2], the target named is T1, human N-type Ca channel. The assay can be described thus: Electrophysiological response, QPatch (depolarization -80 mV to +20 mV).
Experimental: The recombinant cell line described above was used in the measurement of electrophysiological properties with QPatch (Sophion). Cells were maintained in culture as mentioned above. Prior to the experiment, the flasks were moved to 30 °C and incubated for 48-72 hrs. On the day of assaying, cells were detached and harvested. The cell pellet was re-suspended in SMF4HEK (HyClone)/25mM HEPS at 2-5 million/ mL and placed on the QStirrer of the QPatch for 30-60 min prior to the start of the assay. […] Microtiter-Plate/Reference Buffer contained 140 mM TEA-Cl, 10mM BaCl2, 0.8 mM MgCl2, 10 mM HEPES pH ∼7.4 adjusted with TEA-OH/HCl, and ∼300mOsm. Cells were transferred to a QPatch 48 plate and gigaseal was formed. The plate was perfused with intracellular and extracellular buffer. […] In brief, cells were depolarized from resting potential of -80 mV to +20 mV and current was recorded. Data was plotted as percent inhibition vs concentration of the compound and IC50 values were generated using Graphpad Prism non-linear regression analysis.
[3] abbreviates: read-out: N Type IC50 Data Qpatch Pulse=15, Pulse=15, concentration range 0.01-1 µM.
[4] abbreviates: N Type IC50 Data Qpatch Pulse=1, Pulse=1, concentration range 0.01-1 µM.
Where [5] appears, read: concentration range 0.01-0.3 µM.
The mark [6] stands for this setting: Pulse=15, concentration range 0.01-0.3 µM.

T1 sequence (Q00975 whole entry): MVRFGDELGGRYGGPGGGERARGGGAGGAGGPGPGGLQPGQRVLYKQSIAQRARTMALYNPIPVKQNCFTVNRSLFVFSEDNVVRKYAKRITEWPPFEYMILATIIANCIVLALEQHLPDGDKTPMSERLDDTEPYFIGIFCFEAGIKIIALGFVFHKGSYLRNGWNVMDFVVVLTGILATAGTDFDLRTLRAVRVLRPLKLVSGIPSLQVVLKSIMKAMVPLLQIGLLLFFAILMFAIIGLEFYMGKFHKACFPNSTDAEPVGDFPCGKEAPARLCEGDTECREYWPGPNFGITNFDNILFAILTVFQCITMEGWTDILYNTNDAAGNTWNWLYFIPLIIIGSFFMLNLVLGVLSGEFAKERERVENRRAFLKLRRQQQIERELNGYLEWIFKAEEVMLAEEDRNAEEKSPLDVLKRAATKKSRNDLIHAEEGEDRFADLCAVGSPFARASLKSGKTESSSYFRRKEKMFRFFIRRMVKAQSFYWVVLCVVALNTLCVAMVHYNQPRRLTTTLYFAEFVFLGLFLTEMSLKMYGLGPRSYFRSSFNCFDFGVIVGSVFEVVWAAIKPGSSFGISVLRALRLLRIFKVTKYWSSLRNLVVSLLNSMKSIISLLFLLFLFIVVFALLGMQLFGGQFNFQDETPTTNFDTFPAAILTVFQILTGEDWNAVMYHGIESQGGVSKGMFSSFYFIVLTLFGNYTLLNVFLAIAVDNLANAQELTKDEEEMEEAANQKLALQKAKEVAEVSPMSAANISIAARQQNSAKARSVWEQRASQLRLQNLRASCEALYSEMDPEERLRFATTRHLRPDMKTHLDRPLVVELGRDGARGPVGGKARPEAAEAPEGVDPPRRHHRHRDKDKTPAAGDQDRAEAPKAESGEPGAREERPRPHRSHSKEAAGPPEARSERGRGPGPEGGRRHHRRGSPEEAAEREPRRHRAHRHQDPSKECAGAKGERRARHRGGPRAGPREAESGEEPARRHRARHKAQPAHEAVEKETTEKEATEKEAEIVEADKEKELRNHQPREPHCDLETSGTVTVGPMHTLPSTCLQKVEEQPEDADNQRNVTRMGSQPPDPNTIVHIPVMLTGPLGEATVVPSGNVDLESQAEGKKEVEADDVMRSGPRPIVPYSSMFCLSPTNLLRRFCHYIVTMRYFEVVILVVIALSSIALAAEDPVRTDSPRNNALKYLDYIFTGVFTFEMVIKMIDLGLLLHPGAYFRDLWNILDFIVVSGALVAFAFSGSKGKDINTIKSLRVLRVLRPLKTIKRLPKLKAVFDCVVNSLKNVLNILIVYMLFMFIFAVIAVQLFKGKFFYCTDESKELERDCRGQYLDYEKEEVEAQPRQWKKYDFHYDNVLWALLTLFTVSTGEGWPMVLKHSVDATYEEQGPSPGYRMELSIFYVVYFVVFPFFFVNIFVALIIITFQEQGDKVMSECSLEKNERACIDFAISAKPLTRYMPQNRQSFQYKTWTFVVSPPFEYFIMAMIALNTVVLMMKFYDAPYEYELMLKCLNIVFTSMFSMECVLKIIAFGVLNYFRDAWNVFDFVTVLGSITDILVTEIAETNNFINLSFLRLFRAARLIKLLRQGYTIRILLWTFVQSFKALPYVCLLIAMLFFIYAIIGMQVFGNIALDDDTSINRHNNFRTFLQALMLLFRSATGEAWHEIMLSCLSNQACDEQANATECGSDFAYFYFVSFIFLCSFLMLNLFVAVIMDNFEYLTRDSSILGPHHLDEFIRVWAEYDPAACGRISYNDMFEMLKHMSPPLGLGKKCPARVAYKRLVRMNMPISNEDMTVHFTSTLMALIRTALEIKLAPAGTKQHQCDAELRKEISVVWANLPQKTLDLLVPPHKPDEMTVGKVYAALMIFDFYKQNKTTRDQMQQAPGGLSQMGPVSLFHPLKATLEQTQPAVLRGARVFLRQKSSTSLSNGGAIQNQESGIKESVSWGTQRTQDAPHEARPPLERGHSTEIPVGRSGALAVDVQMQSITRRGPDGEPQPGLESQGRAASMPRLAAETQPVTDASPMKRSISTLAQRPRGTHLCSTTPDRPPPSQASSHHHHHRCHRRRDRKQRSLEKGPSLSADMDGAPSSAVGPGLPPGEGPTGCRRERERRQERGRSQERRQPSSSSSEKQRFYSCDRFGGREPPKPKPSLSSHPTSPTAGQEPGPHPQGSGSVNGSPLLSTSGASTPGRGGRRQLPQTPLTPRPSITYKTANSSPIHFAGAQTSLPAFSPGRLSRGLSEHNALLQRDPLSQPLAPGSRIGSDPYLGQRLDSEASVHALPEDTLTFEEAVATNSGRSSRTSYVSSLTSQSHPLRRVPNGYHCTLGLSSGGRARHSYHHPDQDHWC
T1 sequence (P54284 whole entry partner): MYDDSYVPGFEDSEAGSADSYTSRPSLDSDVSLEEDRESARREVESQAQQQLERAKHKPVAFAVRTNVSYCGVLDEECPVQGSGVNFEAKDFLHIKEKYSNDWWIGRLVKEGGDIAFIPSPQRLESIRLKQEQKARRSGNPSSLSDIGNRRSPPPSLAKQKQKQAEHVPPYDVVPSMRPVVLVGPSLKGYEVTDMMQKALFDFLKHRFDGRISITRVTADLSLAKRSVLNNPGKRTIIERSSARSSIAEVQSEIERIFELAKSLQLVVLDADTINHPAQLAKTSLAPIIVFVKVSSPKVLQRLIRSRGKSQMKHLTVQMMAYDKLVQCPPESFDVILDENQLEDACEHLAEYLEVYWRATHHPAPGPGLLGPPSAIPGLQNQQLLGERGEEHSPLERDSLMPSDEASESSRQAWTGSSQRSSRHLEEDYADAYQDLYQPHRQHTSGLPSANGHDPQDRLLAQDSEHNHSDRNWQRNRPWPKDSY
T1 sequence (P54289 25-956 partner limits assumed): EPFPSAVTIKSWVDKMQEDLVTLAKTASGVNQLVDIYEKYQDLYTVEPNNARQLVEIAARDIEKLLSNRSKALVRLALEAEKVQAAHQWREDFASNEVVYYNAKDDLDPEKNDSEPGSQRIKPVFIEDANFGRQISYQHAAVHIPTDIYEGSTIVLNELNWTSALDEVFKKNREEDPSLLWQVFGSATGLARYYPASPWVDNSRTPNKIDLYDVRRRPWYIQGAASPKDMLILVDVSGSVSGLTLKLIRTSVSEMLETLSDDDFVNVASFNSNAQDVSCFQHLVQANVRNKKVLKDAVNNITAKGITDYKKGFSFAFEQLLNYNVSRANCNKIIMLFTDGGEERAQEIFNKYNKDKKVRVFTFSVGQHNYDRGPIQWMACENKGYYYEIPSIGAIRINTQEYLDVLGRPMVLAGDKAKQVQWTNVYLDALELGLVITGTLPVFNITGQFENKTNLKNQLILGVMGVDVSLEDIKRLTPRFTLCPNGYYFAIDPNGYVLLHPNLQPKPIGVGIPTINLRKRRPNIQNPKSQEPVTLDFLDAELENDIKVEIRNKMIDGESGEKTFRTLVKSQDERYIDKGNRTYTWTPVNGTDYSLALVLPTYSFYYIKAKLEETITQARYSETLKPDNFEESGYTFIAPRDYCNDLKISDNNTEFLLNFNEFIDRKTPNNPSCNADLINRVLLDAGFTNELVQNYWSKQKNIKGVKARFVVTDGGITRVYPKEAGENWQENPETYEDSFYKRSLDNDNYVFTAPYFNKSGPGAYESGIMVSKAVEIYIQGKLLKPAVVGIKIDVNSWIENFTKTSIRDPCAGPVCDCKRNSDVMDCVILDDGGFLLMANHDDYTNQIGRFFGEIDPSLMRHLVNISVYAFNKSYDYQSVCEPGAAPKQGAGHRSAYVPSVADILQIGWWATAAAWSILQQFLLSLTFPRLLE
T1 sequence (P54289 957-1103 partner limits assumed): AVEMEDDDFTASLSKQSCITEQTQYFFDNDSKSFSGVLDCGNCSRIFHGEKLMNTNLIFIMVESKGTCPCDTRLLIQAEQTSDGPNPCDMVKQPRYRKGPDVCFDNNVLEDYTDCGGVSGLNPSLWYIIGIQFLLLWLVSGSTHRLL

For the compound `COc1ccc(-n2cc(C3CC(C)(C)OC(C)(C)C3)nc2-c2cccnc2OC)cc1F` [Compound 23, 3-(1-(3-fluoro-4-methoxyphenyl)-4-(2,2,6,6-tetramethyltetrahydro-2H-pyran-4-yl)-1H-imidazol-2-yl)-2-methoxypyridine], the IC50 (as a rule, the point on the concentration scale where inhibition reaches its midpoint) on human N-type Ca channel [1] is 310 nM; on human N-type Ca channel [2] (setting [3]) it was above 1000 nM.
`COc1cc(-n2cc(C3CC(C)(C)OC(C)(C)C3)nc2-c2cccnc2OC)ccc1F` [Compound 24, 3-(1-(4-fluoro-3-methoxyphenyl)-4-(2,2,6,6-tetramethyltetrahydro-2H-pyran-4-yl)-1H-imidazol-2-yl)-2-methoxypyridine]: the IC50 was 7150 nM on human N-type Ca channel [1] and above 1000 nM on human N-type Ca channel [2] (setting [3]).
As to `COc1ncccc1-c1nc(C2CC(C)(C)OC(C)(C)C2)cn1-c1ccc(C)c(C#N)c1` [Compound 25, 5-(2-(2-methoxypyridin-3-yl)-4-(2,2,6,6-tetramethyltetrahydro-2H-pyran-4-yl)-1H-imidazol-1-yl)-2-methylbenzonitrile], the IC50 on human N-type Ca channel [1] was 818 nM; on human N-type Ca channel [2] (setting [4]), above 1000 nM; on human N-type Ca channel [2] (setting [3]), above 1000 nM.
Regarding `Cn1cnnc1-c1nc(C2CC(C)(C)OC(C)(C)C2)cn1-c1ccc(Cl)cc1` [Compound 26, 3-(1-(4-chlorophenyl)-4-(2,2,6,6-tetramethyltetrahydro-2H-pyran-4-yl)-1H-imidazol-2-yl)-4-methyl-4H-1,2,4-triazole], the IC50 at human N-type Ca channel [1] is 5760 nM; at human N-type Ca channel [2] (setting [4]), above 1000 nM; against human N-type Ca channel [2] (N Type IC50 Data Qpatch Pulse=15, Pulse=15, concentration range 0.01-1 µM), above 1000 nM.
In the case of `COc1ncccc1-c1nc(C2CC(C)(C)OC(C)(C)C2)cn1Cc1ccccc1Cl` [Compound 27, 3-(1-(2-chlorobenzyl)-4-(2,2,6,6-tetramethyltetrahydro-2H-pyran-4-yl)-1H-imidazol-2-yl)-2-methoxypyridine], the half-inhibitory concentration (IC50) at human N-type Ca channel [1] stood at 6400 nM; against human N-type Ca channel [2] (N Type IC50 Data Qpatch Pulse=15, Pulse=15, concentration range 0.01-0.3 µM), 1900 nM. The “N Type IC50 Data Qpatch Pulse=1” value on human N-type Ca channel [2] (setting [5]) is “poor fit(0.01-0.3 µM)”.
Consider `COc1ncccc1-c1nc(C2CC(C)(C)OC(C)(C)C2)cn1Cc1ccc(Cl)cc1` [Compound 28, 3-(1-(4-chlorobenzyl)-4-(2,2,6,6-tetramethyltetrahydro-2H-pyran-4-yl)-1H-imidazol-2-yl)-2-methoxypyridine], for which the IC50 on human N-type Ca channel [1] stood at 1640 nM. Besides, on human N-type Ca channel [2] (setting [5]), the “N Type IC50 Data Qpatch Pulse=1” value is reported as “poor fit(0.01-0.3 µM)”. Besides, at human N-type Ca channel [2] (setting [6]), the “N Type IC50 Data Qpatch Pulse=15” value is listed as “poor fit(0.01-0.3 µM)”.
Turning to `COc1ncccc1-c1nc(C2CC(C)(C)OC(C)(C)C2)cn1-c1ccc(C#N)c(C(F)(F)F)c1` [Compound 29, 4-(2-(2-methoxypyridin-3-yl)-4-(2,2,6,6-tetramethyltetrahydro-2H-pyran-4-yl)-1H-imidazol-1-yl)-2-(trifluoromethyl) benzonitrile], the IC50 on human N-type Ca channel [1] was found to be 492 nM. Besides, the “N Type IC50 Data Qpatch Pulse=1” value at human N-type Ca channel [2] (setting [5]) is “poor fit(0.01-0.3 µM)”. Also, the “N Type IC50 Data Qpatch Pulse=15” value on human N-type Ca channel [2] (setting [6]) is given as “poor fit(0.01-0.3 µM)”.
For `COc1ncccc1-c1nc(C2CC(C)(C)OC(C)(C)C2)cn1-c1ccc(F)cc1F` [Compound 30, 3-(1-(2,4-difluorophenyl)-4-(2,2,6,6-tetramethyltetrahydro-2H-pyran-4-yl)-1H-imidazol-2-yl)-2-methoxypyridine], at human N-type Ca channel [1], the IC50 is 321 nM. Also, the inhibition (usually the relative decrease from the control value, in per cent) at 10 µM came out at 67% at human N-type Ca channel [2] (read-out: Qpatch Pulse=1 (percent inhibition)) and 35% at human N-type Ca channel [2] (read-out: Qpatch Pulse=15 (percent inhibition)).
`COc1ncccc1-c1nc(C2CC(C)(C)OC(C)(C)C2)cn1-c1cccc(F)c1F` [Compound 31, 3-(1-(2,3-difluorophenyl)-4-(2,2,6,6-tetramethyltetrahydro-2H-pyran-4-yl)-1H-imidazol-2-yl)-2-methoxypyridine]: the IC50 at human N-type Ca channel [1] was 769 nM; against human N-type Ca channel [2] (N Type IC50 Data Qpatch Pulse=1, Pulse=1, concentration range 0.01-0.3 µM), 1580 nM. Moreover, the “N Type IC50 Data Qpatch Pulse=15” value at human N-type Ca channel [2] (setting [6]) is “poor fit(0.01-0.3 ,u.M)”.
As for `COc1ccccc1-c1nc(C2CC(C)(C)OC(C)(C)C2)cn1-c1cccc(C#N)c1` [Compound 32, 3-(2-(2-methoxyphenyl)-4-(2,2,6,6-tetramethyltetrahydro-2H-pyran-4-yl)-1H-imidazol-1-yl)benzonitrile], the IC50 on human N-type Ca channel [1] was 278 nM; on human N-type Ca channel [2] (setting [4]), above 1000 nM; on human N-type Ca channel [2] (setting [3]), above 1000 nM.

The values above are taken from EP3033337B1, “SUBSTITUTED IMIDAZOLES AS N-TYPE CALCIUM CHANNEL BLOCKERS” (Janssen Pharmaceutica NV, priority 2013, dated 2015).
